According to patent US4975437A, “Isomers of 1-azabicyclo(2.2.2)oct-3-yl 1,4-dihydro-2,6-dimethyl-4-(3-nitrophenyl)-5-nitropyridine-3-carboxylate” (Marion Laboratories, Inc., priority 1989, dated 1990):
Where a name gives a salt, the structure may show the parent alone. Read-outs that look alike come from different tables or passages of the source.

Legend:
[1] = system: smooth muscle (longitudinal muscle of ileum); assay: Enhancement of Calcium Ion Evoked Smooth Muscle Contractility (isolated ileum longitudinal muscle); conditions: guinea pig ileum; for minimal effective concentration: lowest concentration that produced enhancement of calcium evoked contraction, 37° C, read-out: Threshold for Enhancement; for Concentration at Maximum Enhancement: concentration of compound that produced the maximum enhancement; for Maximum Enhancement (% maximum contraction): 6 min
Source text: This test is a measure of the ability of test compounds to enhance muscle contraction caused by calcium ions. A sample of muscle was placed under tension in a device to measure its length and contracted by addition of potassium chloride (to activate the calcium channels) followed by addition of a calcium ion solution. The addition of a calcium agonist should cause the influx of additional calcium ions and thereby cause further contraction of the muscle. The lowest concentration of test compound necessary to evoke this additional contraction was measured, as were the maximum contraction obtained and the concentration at which it was reached
The ileum of male albino guinea pigs were cut into 3-4 cm segments. The longitudinal muscle, with myenteric plexus attached, was separated from the circular muscle. […] Each preparation was suspended under resting tension of 0.3 g. The tissues were switched to calcium free Tryodes solution for 24 minutes. with complete replacement of the solution every four minutes. Potassium chloride was then added to produce a bath concentration of […], and calcium solutions were cumulatively added to increase the bath calcium ion concentration to 0.2-8.0 mM. The tissues were re-equilibrated in normal Tyrodes and then calcium free Tyrodes. Enhancement of calcium evoked contractions in the presence of drug were determined by repeating the cumulative addition procedure after the tissues were exposed to the drug for six minutes. Responses were expressed relative to the maximum contraction elicited by calcium ion in the absence of the drug.

[2] = in words; cited from earlier work
[3] = system: voltage sensitive calcium channels; assay: Potentiation of Calcium Influx across the Membrane (Quin 2 fluorescence); format: cell-based, murine; conditions: NG108-15 (NGI08-15 [sic]) cells, KCl 50 mM depolarization, 37° C, percent enhancement over potassium chloride stimulation
Experimental: This test system was developed to evaluate the relative ability of compounds to potentiate calcium influx into cells via voltage sensitive calcium channels. The technique employs a high calcium affinity fluorescent dye to monitor changes in intracellular free calcium concentrations. The cells are incubated with a protected non-fluorescent form of the calcium sensitive dye. This compound permeates the cell wall and enters the cell. There it is transformed by enzymes into the fluorescent dye Quin 2 which cannot leave the cell Quin 2 has a high affinity for calcium ions and when calcium is bound to the dye, the complex fluoresces, the intensity of the fluorescence being proportional to the concentration of calcium ions. Voltage sensitive calcium channels are activated by the addition of potassium chloride to the media and calcium ion influx occurs. The increase in fluorescence is measured, giving a relative measure of calcium influx, the control value. In a separate cuvette, both potassium chloride and the test compound are administered to the cells and the fluorescence measured. A calcium agonist should increase influx of calcium into the cells and therefore an increase in the fluorescence. The percent stimulation above control is obtained from the increase in fluorescence.
Differentiated murine neuronal (neuroblastoma x glioma) hybrid cells (NGI08-15) which contain an abundance of voltage dependant calcium channels were used as a source of tissue for testing these compounds.
Briefly, NGI08-15 cells were cultured in 10% CO2 at 37° C. in Dulbecco's modified Eagle's medium (DMEM) supplemented with glutamine (1.0 mM). fetal bovine serum (FBS; 10%). and hypoxanthine (100 μM), aminopterin (1.0 μM). and thymidine (20 μM). Differentiation was induced by treatment with dibutyl cyclic AMP (4 days, 1.0 mM) [L. Noronha-Blob, C. […] Dispersed cells (5×10^6 cells/mL) were incubated with quin 2 acetoxymethyl ester (quin 2-AM, the calcium specific dye) [100 μM. in dimethyl sulfoxide (DMSO)] for 60 minutes at 37° C. The control suspensions received only DMSO. Cells were then diluted in ice-cold media, centrifuged and washed twice (1,500×g, 3 minutes) in ice-cold HEPES buffer (composition: 130 mM NaCl, 5.0 mM KCl, 6.0 mM glucose, 1.0 mM MgCl2, 1.0 mM CaCl2, and 20 mM HEPES, pH 7 4).
The change in fluorescence was calculated from the difference between final and initial values. The results were expressed as a percent enhancement over potassium chloride stimulation (control).

[4] = system: isolated guinea pig atrium; conditions: cited from earlier work
[5] = system: isolated rabbit aortic strips; conditions: cited from earlier work
[6] = system: radioactive calcium uptake; conditions: cited from earlier work
rabbit aortic rings = conditions: cited from earlier work
[7] = system: extracellular calcium ions; conditions: in words, dose-dependent; cited from earlier work
[8] = increase above control as percent of maximum control calcium evoked contraction, 6 min drug exposure

| SMILES | Concentration at Maximum Enhancement [1] | % Stimulation Above Control [3] | Maximum Enhancement (% maximum contraction) [1, 8] | minimal effective concentration ([1]; 6 min drug exposure) | also measured |
| --- | --- | --- | --- | --- | --- |
| COC(=O)C1=C(C)NC(C)=C([N+](=O)[O-])C1c1ccccc1C(F)(F)F (centres unmarked) [BAY K 8644, Methyl 1,4-dihydro-2,6-dimethyl-5-nitro-4-(2-trifluoromethylphenyl)-3-pyridine carboxylate] | 100 nM | 38% |  |  | Emax ([1]; Cavia porcellus, 0.1 h, increase above control as percent of maximum control calcium evoked contraction, 6 min drug exposure): 38%; minimal effective concentration ([1]; Cavia porcellus, 0.1 h, 6 min drug exposure): 10 nM; inotropic effect [2]: potent positive inotropic effects |
| CC1=C(C(=O)OC2CN3CCC2CC3)C(c2cccc([N+](=O)[O-])c2)C([N+](=O)[O-])=C(C)N1 (single isomer, unassigned) [(+a, -b), (+a, -b)-1-Azabicyclo[2.2.2]oct-3-yl 1,4-Dihydro-2,6-dimethyl-4-(3-nitrophenyl)-5-nitropyridine-3-carboxylate fumarate] | 10 nM | 31% | 15% | 10 nM |  |
| CC1=C(C(=O)Nc2ccccc2)C(c2ccccc2Cl)C(C(=O)OCCc2ccccn2)=C(C)N1 (centres unmarked) [YC-170] |  |  |  |  | inotropic effect in atrium ([4]; isolated guinea pig atrium): positive inotropic effect; contractile tension in atrium ([4]; partially depolarized with a low concentration of potassium): decrease in contractile tension; contraction of aortic strips ([5]; isolated rabbit aortic strips): induced contraction; relaxant effect on aorta ([5]; precontracted by a high concentration of potassium): relaxant effect |
| CC1=C(C(=O)OC2CN3CCC2CC3)C(c2cccc([N+](=O)[O-])c2)C([N+](=O)[O-])=C(C)N1 (single isomer, unassigned) [(-a, +b), (-a, +b)-1-Azabicyclo[2.2.2]oct-yl 1.4-Dihydro-2,6-dimethyl-4-(3-nitrophenyl)-5-nitropyridine-3-carboxylate fumarate] | 1000 nM | 25% | 13% | 100 nM |  |
| CC1=C(C(=O)OC(C)C)[C@@H](c2cccc3nonc23)C([N+](=O)[O-])=C(C)N1 [R enantiomer] |  |  |  |  | radioactive calcium uptake ([6]; single enantiomer, in words): inhibited contraction and radioactive calcium uptake; contraction (rabbit aortic rings; single enantiomer, in words): inhibited contraction; stimulant activity (rabbit aortic rings; single enantiomer, in words): no stimulant activity |
| CC1=C(C(=O)OC(C)C)C(c2cccc3nonc23)C([N+](=O)[O-])=C(C)N1 (racemic) [Example 202-792, 2-propyl 4-(4-benzofurazanyl)-1,4-dihydro-2,6-dimethyl-5-nitropyridine-3-carboxylate] |  |  |  |  | radioactive calcium uptake ([6]; high levels of depolarization): inhibited contraction and radioactive calcium uptake at high levels of depolarization; contraction of aortic rings (rabbit aortic rings; high levels of depolarization): inhibited contraction; contraction of aortic rings (rabbit aortic rings; low levels of depolarization): enhanced contractions of rabbit aortic rings at low levels of depolarization |
| CCOC(=O)C1=C(C)NC2=C(C(=O)OC2)C1c1ccccc1OC(F)F (centres unmarked) [CGP 28392, ethyl 4-[2-(difluoromethoxy)phenyl]-1,4,5,7-tetrahydro-2-methyl-5-oxofuro[3,4-b]pyridine-3-carboxylate] |  |  |  |  | concentration of extracellular calcium ions [7]: increase in a dose-dependent manner the concentration of extracellular calcium ions |
| CC1=C(C(=O)OC(C)C)[C@H](c2cccc3nonc23)C([N+](=O)[O-])=C(C)N1 [S enantiomer] |  |  |  |  | radioactive calcium uptake ([6]; single enantiomer, in words): enhanced radioactive calcium uptake dependently at all levels of depolarization; concentration-response curve for depolarization-induced contraction (rabbit aortic rings; single enantiomer, in words): shifted the concentration-response curve for depolarization-induced contraction in an almost parallel fashion to the left; contraction (rabbit aortic rings; single enantiomer, in words): enhanced contraction |
| CC1=C(C(=O)OC2CN3CCC2CC3)C(c2cccc([N+](=O)[O-])c2)C([N+](=O)[O-])=C(C)N1 (single isomer, unassigned) [(-a, -b), (-a, -b)-1-Azabicyclo[2.2.2]oct-3-yl 1,4-Dihydro-2,6-dimethyl-4-(3-nitrophenyl)-5-nitropyridine-3-carboxylate fumarate] | 10 nM | 10% | 18% | 10 nM |  |
| CC1=C(C(=O)OC2CN3CCC2CC3)C(c2cccc([N+](=O)[O-])c2)C([N+](=O)[O-])=C(C)N1 (single isomer, unassigned) [(+a, +b), (+a, +b)-1-Azabicyclo[2.2.2]oct-3-yl 1,4-Dihydro-2,6-dimethyl-4-(3-nitrophenyl)-5-nitropyridine-3-carboxylate fumarate] | 100 nM | 20% | 11% | 10 nM |  |
